What is called MIC50 is the lowest concentration that inhibits either 50% of growth or 50% of the strains tested, depending on the study.

For one data set, the target named is Albumin (Homo sapiens, UniProt P02768). The data set can be described thus: Protein binding to human serum albumin. Type of data set: ADME, cell-free. Conditions: read-out: PB (converted).
Data set [1] can be described thus: Terminal half life in human. Type of data set: ADME. The note with it: read-out: beta t1/2 (converted).
The nature of data set [2]: Terminal half life in human at 10 mg/kg, administered as single dose measured over 2 hrs. The class given is ADME, organism-based. The note with it: in vivo, read-out: beta t1/2 (converted).
A further data set has as its system Staphylococcus aureus. Kind of data set: Antibacterial activity against methicillin-resistant Staphylococcus aureus. The class given is functional.

Converted amounts (≈) assume the structure as drawn.

Albumin, sequence (P02768 whole entry): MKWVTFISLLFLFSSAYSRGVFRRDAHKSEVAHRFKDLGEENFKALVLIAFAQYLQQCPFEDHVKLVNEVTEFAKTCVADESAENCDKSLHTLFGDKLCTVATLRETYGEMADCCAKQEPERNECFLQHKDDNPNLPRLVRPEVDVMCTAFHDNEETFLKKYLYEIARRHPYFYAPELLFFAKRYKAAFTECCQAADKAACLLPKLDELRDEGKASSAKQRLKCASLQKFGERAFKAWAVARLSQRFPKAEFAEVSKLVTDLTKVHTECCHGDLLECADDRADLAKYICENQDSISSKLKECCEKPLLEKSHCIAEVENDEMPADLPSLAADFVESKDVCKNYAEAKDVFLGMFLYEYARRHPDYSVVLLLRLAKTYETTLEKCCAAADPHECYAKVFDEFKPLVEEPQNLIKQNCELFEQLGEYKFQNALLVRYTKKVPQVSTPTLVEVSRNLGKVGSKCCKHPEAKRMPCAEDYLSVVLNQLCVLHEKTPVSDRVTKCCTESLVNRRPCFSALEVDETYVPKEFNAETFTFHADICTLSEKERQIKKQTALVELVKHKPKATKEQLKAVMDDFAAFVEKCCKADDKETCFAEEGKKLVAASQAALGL

Regarding `CN[C@H](CC(C)C)C(=O)N[C@H]1C(=O)N[C@@H](CC(N)=O)C(=O)N[C@H]2C(=O)N[C@H]3C(=O)N[C@H](C(=O)N[C@H](C(=O)O)c4cc(O)cc(O)c4-c4cc3ccc4O)[C@H](O[C@H]3C[C@](C)(N)[C@@H](O)[C@H](C)O3)c3ccc(c(Cl)c3)Oc3cc2cc(c3O[C@@H]2O[C@H](CO)[C@@H](O)[C@H](O)[C@H]2O[C@H]2C[C@](C)(NCc3ccc(-c4ccc(Cl)cc4)cc3)[C@@H](O)[C@H](C)O2)Oc2ccc(cc2Cl)[C@H]1O` [ORITAVANCIN], on Albumin, the fraction unbound was 0.1. In addition, the half-life in data set [1] is 195 h.
Take `CCCCCCCCCCNCCN[C@@]1(C)C[C@H](O[C@H]2[C@H](Oc3c4cc5cc3Oc3ccc(cc3Cl)[C@@H](O)[C@@H](NC(=O)[C@@H](CC(C)C)NC)C(=O)N[C@@H](CC(N)=O)C(=O)N[C@H]5C(=O)N[C@H]3C(=O)N[C@H](C(=O)N[C@H](C(=O)O)c5cc(O)c(CNCP(=O)(O)O)c(O)c5-c5cc3ccc5O)[C@H](O)c3ccc(c(Cl)c3)O4)O[C@H](CO)[C@@H](O)[C@@H]2O)O[C@@H](C)[C@H]1O` [TELAVANCIN]: the half-life in data set [2] is 7.5 h. The fraction unbound at Albumin is 0.07.
Turning to `CN[C@H](CC(C)C)C(=O)N[C@H]1C(=O)N[C@@H](CC(N)=O)C(=O)N[C@H]2C(=O)N[C@H]3C(=O)N[C@H](C(=O)N[C@H](C(=O)O)c4cc(O)cc(O)c4-c4cc3ccc4O)[C@H](O)c3ccc(c(Cl)c3)Oc3cc2cc(c3O[C@@H]2O[C@H](CO)[C@@H](O)[C@H](O)[C@H]2O[C@H]2C[C@](C)(N)[C@H](O)[C@H](C)O2)Oc2ccc(cc2Cl)[C@H]1O` [VANCOMYCIN], at Albumin, the fraction unbound was 0.9. In the data set on Staphylococcus aureus, this compound returned an MIC50 of 1 µg/mL (≈ 0.69 µM). For the same compound, in data set [1], the half-life was 6 h.

Source of the values: ChEMBL document CHEMBL4732080, “Polypharmacological drug actions of recently FDA approved antibiotics” (Eur J Med Chem, 2021).
